Measured values: US20200337297A1, “SYSTEM AND METHOD FOR CARBON MONOXIDE […] BLOOD COMPONENTS” (SAFETIN LTD., priority 2017, published 2020)

Columns and labels:
platelets [1] = experiment: Analysis of phosphatidylserine (PS) exposure by FACS (AnnexinV-FITC); type: cell-based, human
Description: PS exposure was measured by FACS analysis of bound AnnexinV-FITC using 488 nm for excitation and 530 nm for emission. (Shapira S, Friedman Z et al., “The effect of storage on the expression of platelet membrane phosphatidylserine and the subsequent impact on the coagulant function of stored platelets”, Transfusion 2000, 40:1257-1263)

[2] = system: human platelets in rabbit blood circulation; experiment: In vivo platelets viability analysis in a rabbit model
Description: Female New Zealand white rabbits (2.5-3 kg) were infused with Ethyl Palmytate (EP) to inhibit the Macrophages function (Blajchman M A and Lee D H, “The thrombocytopenic rabbit bleeding time model to evaluate the in vivo hemostatic efficacy of platelets and platelet substitutes”, Transfus Med Rev 1997, 11:95-105). EP solution (10 ml) was prepared by mixing (up to homogeneity) of 2.25 ml EP with 7.75 ml of 5% dextrose containing 1% Tween-20.
[…] Blood samples at time intervals were analyzed by flow cytometry with FITC labeled anti-CD42a for the presence of human platelets (Rothwell S W, Maglasang P et al., “Survival of fresh human platelets in a rabbit model as traced by flow cytometry”, Transfusion 1998, 38:550-556; Leytin V, Allen D J et al., “A rabbit model for monitoring in vivo viability of human platelet concentrates using flow cytometry”, Transfusion 2002, 42:711-718). 100% represented the total number of normalized human platelet in rabbit circulation after 30 min from the injection.

platelets [3] = experiment: ATP quantitation in stored platelets (luminometric ATP bioluminescence kit); type: cell-based, human
Description: PC fractions were identically prepared from CO pretreated or untreated blood by consecutive centrifugation in a sterile environment using blood bank conditions. Bicarbonate (4% of PC volume) was then added from a stock solution of 750 mM with agitation to yield a final bicarbonate concentration of 30 mM. Next, the PC was treated with CO in a similar manner to whole blood. Alternatively, rather than applying a vacuum, the containers were flushed for 10 min. with sterile CO while agitating the containers, which were then sealed. The containers were allowed to stay at room temperature of 20-24 degree C.° PRP platelets were treated similarly.
A luminometric ATP was measured by Veritas™ Microplate Luminometer (Tuner Biosystems) by using an ATP bioluminescence kit (CLS II) from Roche (cat No. 11 699 709 001) Mannheim Germany The assay was performed according to the manufacturer's instructions. Briefly: 50 μl of cell lysate (500000 cell per sample) or ATP standard concentration was added in advance to each well in 96 well LIA-white plate (Greiner bio one). Automatic injection of 50 μof substrate solution (luciferin and luciferase) was added to each well by the device and the luminescence was measured. ATP concentrations were calculated based on an ATP standard curve. Each sample was tested in triplicate.

[C-]#[O+] [COatm, carbon monoxide]
PS exposure after transfer to air (platelets [1]; 9 days COatm-stored, then re-aerated (FIG. 6d)): another fraction returned to very low PS exposure
PS exposure, change during extended storage (platelets [1]; extended storage under COatm up to 9 days): no further changes
PS exposure (platelets [1]; several hours of storage under COatm (FIG. 6b)): most cells are PS-exposed
time dependent survival of stored human platelets in rabbit blood circulation ([2]; 7 days stored, COatm vs air-stored (FIG. 5)): survive longer in vivo than air-stored platelets
survival of stored platelets in rabbit blood circulation ([2]; Plt preserved for 9 days, COatm vs air (FIG. 5)): survived for longer in blood circulation
ATP level relative to the initial value of the ATP of air preserved platelets (platelets [3]; 5 days COatm storage, then overnight re-aeration): 74%
ATP level relative to the level in fresh PC (platelets [3]; platelets stored as PC 5 days under anaerobic COatm): 28%
